This is an account of results in patent US11408016B2, “Amino acid dehydrogenase mutant and application in synthesis of L-glufosinate-ammonium thereof” (ZHEJIANG UNIVERSITY OF TECHNOLOGY, priority 2018, dated 2022).

Structures are written as SMILES.

The target of assay [1] is Pseudomonas monteilii amino acid dehydrogenase DyGDH variant pDyGDH-F95I-A108T-R172P-R303H (F95I/A108T/R172P/R303H of SEQ ID No. 2) (Pseudomonas promysalinigenes, UniProt A0ABY6AJQ3, A108T/F95I/R172P/R303H). In words: Kinetic parameter determination, pDyGDH-F95I-A108T-R172P-R303H. In kind it is biochemical. How it is done: The gene of the amino acid dehydrogenase cloned from Pseudomonas monteilii WP_060477601.1 (the nucleotide sequence is shown in SEQ ID No. 1, and the amino acid sequence is shown in SEQ ID No. 2) was used to construct the expression vector pETDEut-dygdh, then the obtained vector was transformed into E. coli to obtain the original strain E. coli BL21(DE3)/pETDEut-dygdh.
The mutant proteins were purified by Ni-NTA column (1.6×10 cm, Bio-Rad, the USA), and the specific operation was carried out as follows: (1) a Ni column was equilibrated with 5 column volumes of binding buffer (pH 8.0, 50 mM sodium phosphate buffer containing 0.3 M NaCl) until the baseline was steady; (2) the sample was loaded with a flow rate of 1 mL/min, the amount of the loading sample was 25-40 mg/mL calculated by the volume of the column, thereby attaching the target protein to the Ni column; (3) the column was washed with 6 column volumes of buffer A (pH 8.0, 50 mM sodium phosphate buffer containing 0.3 M NaCl and 30 mM imidazole) at a flow rate of 1 mL/min until the baseline was steady; (4) the column was washed with buffer B (pH 8.0, 50 mM sodium phosphate buffer containing 0.3 M NaCl and 500 mM imidazole) at a flow rate of 1 mL/min, the target protein was collected and dialyzed overnight in a pH 7.5, 20 mM phosphate buffer, thereby obtaining the pure enzyme; and (5) the Ni column was washed with 5 column volumes of binding buffer (pH 8.0, 50 mM sodium phosphate buffer containing 0.3 M NaCl) until the baseline was steady, and the Ni column was stored in 5 column volumes of ultrapure water containing 20% ethanol.
Kinetic parameters of the amino acid hydrogenase and its mutants were examined, 2-carbonyl-4-(hydroxymethylphosphinyl)-butyric acid was taken as substrate, the concentration was set as 2-10 mM (2, 4, 6, 8, 10 mM), the concentration of exogenous coenzyme NADPH was set as 1-5 mM (1, 2, 3, 4, 5 mM), 100 uL of pure enzyme solution was added (according to Example 4).
(§1) The reaction system was 500 μL, the pure enzyme solution collected in Example 4 was diluted 10 times with pH 7.4, 100 mM phosphate buffer, then 100 μL of the resulting solution was sampled, added with the substrate and exogenous coenzyme NADPH, pH 7.4, 100 mM phosphate buffer was taken as a reaction medium, after reacting at 35° C. and 600 rpm for 10 min, the concentration of L-glufosinate-ammonium in the reacting solution was determined by HPLC (according to Example 4).
(§2) According to the sequential mechanism of amino acid dehydrogenase's catalytic reaction, vmax, Km^A, Km^B can be calculated by dual-reciprocal graph, the results were shown in Table 4.

For assay [2], the target named is T1, Pseudomonas monteilii amino acid dehydrogenase DyGDH (WP_060477601.1), original pDyGDH, SEQ ID No. 2 (Pseudomonas promysalinigenes, UniProt A0ABY6AJQ3).
T1 sequence (A0ABY6AJQ3 1-446): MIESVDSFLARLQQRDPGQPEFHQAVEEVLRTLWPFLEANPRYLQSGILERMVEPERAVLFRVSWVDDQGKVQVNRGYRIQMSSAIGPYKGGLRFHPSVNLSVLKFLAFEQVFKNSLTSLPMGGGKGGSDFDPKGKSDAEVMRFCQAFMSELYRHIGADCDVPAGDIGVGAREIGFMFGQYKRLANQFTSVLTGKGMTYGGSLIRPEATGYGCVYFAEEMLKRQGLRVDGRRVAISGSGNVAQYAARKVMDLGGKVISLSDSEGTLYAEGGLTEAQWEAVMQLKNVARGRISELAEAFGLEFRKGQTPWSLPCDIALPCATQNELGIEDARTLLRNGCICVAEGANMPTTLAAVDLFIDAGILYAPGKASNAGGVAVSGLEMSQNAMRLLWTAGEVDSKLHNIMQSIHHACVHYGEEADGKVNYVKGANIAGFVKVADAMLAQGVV
Description: Kinetic parameter determination, original pDyGDH. As to conditions: pH 7.4, 35° C. In kind it is biochemical. How it is done:
The gene of the amino acid dehydrogenase cloned from Pseudomonas monteilii WP_060477601.1 (the nucleotide sequence is shown in SEQ ID No. 1, and the amino acid sequence is shown in SEQ ID No. 2) was used to construct the expression vector pETDEut-dygdh, then the obtained vector was transformed into E. coli to obtain the original strain E. coli BL21(DE3)/pETDEut-dygdh. […]
as §1, §2

For the compound `CP(=O)(O)CCC(=O)C(=O)O` [2-carbonyl-4-(hydroxymethylphosphinyl)-butyric acid], the “kcat/Km^B (2-carbonyl-4-(hydroxymethylphosphinyl)-butyric acid)” value was 363100 M⁻¹ s⁻¹ in assay [1] (pH 7.4, 35° C.) and 12410 M⁻¹ s⁻¹ in assay [2]. The “catalytic efficiency kcat/Km^B on 2-carbonyl-4-(hydroxymethylphosphinyl)-butyric acid, times higher than that of the original enzyme” value in assay [1] (versus original pDyGDH) was determined as 29.3 times.

Regarding `NC(=O)C1=CN([C@@H]2O[C@H](COP(=O)(O)OP(=O)(O)OC[C@H]3O[C@@H](n4cnc5c(N)ncnc54)[C@H](OP(=O)(O)O)[C@@H]3O)[C@@H](O)[C@H]2O)C=CC1` [NADPH], the “kcat/Km^A (NADPH)” value amounted to 1.43823e+07 M⁻¹ s⁻¹ in assay [1] (pH 7.4, 35° C.) and 385670 M⁻¹ s⁻¹ in assay [2]. Also, the “catalytic efficiency on coenzyme NADPH, times higher than that of the original enzyme” value in assay [1] (versus original pDyGDH) is reported as 37.3 times.
